What was measured:
[1] = system: Dekalb 67-86 RR corn seedlings; assay: Acute water stress in corn seedlings (leaf rolling score); type: in vivo; settings: 40 mL of 0.1 mM or 1.0 mM; 6th day without irrigation; greenhouse
Method: Corn seedlings were scored as unstressed, moderately water stressed and severely water stressed as measured by visual inspection of leaf rolling, a response of corn to water stress. Dekalb 67-86 RR corn seeds were planted and then irrigated through 7 days after emergence in a greenhouse setting. Seedlings were then treated with 40 mL of water, 0.1 mM AB01 or 1.0 mM AB01 and irrigation ceased. On the 6th day without irrigation, seedlings were scored for water stress. Seedlings with open leaves were scored as unstressed; seedlings with partial leaf rolling were scored as moderately stressed; seedlings with completely rolled leaves were scored as severely stressed.

Alfalfa seedlings [2] = assay: Drought tolerance in alfalfa seedlings; type: in vivo; settings: 1 mg/mL; irrigation stopped; approximately 7 days post-treatment
Method: Alfalfa was grown from seeds for 14 days. Seedlings were treated with 1 mg/mL AB01 or mock treated. Irrigation was stopped after treatment and seedlings were monitored for symptoms of water limitation stress.

Tomato seedlings = assay: Salinity tolerance in tomato seedlings; type: in vivo; settings: 10 mg/mL; 250 mL water with 29.2 g/L NaCl 24 hours after treatment; 6 hours after salt irrigation
Method: Tomato seedlings were treated with 10 mg/mL AB01 or mock treated. 24 hours after treatment, they were irrigated with 250 mL water containing 29.2 g/L salt (NaCl).

Seeds of Striga asiatica = assay: Triggering Striga seed germination; type: in vivo; settings: for bioactivity in Striga germination assay: FIG. 1
Method: (B) Bioactivity of synthetic SL. Seeds of Striga asiatica were exposed to SL (right) or a mock treatment (left). […] (C) Synthetic biological pathway for the production of SL in yeast, consisting of enzymes of plant and microbial origin. We tested the ability of AB01 to trigger the germination of Striga seeds. Seeds of Striga asiatica were conditioned by incubation in the dark at 30 degrees for 7 days, and dilutions of the AB01 material in water were applied. We observed that concentrations of 1 nanogram per liter and greater were able to trigger germination of approximately 30% of the seeds, which is similar to published efficiencies and activity for plant-derived strigolactone (FIG. 1A-B).

[3] = system: corn, Dekalb hybrid 68-05; assay: Corn field trial, Hays County, Tex., not irrigated; type: in vivo
Method: Field trial was performed from April to July 2014 in Hays County, Tex. Dekalb hybrid 68-05 was planted at a density of 25,000 plants per acre (30″ rows with 8″ spacing). The field was top-dressed with 80 lbs/ac nitrogen. The field was not irrigated. AB01 treated plots were sprayed with a 2 gram per acre dose at the tasseling (VT) stage. Spraying was accomplished by resuspending solid AB01 in 0.5 mL of acetone, and diluting in water for a spray volume of 1 gallon per 500 square feet. Experiments were performed in triplicate The fraction of fertilized ears was measured by visual inspection of the ear silk at the R2-R3 stage. Unfertilized silks that appear yellow/green, while fertilized silks appear reddish brown. Completely unfertilized ears have silks that are completely yellow/green, fertilized ears appear brown, while ears with an incomplete degree of fertilized silks have a mixed population of silks. […] Ears were visually inspected at harvest to monitor kernel set (the number of fully formed kernels in the mature ear). […] Ears volume was measured in the field at the R3 stage to calculate ear volume. The length and circumference of each ear was measure, and volume was calculated by treating the ear as a cylinder. Approximately 100 ears from each plot were measured. […] After harvest, ears were shelled and kernels counted and weighed to quantitate the ‘thousand kernel weight’ (TKW), or average mass of kernels in the trial. AB01 treated plots yielded kernels averaging 30% higher mass than control plots. Ears from control and treated plots were harvested, shelled, and moisture tested to quantitate dry mass. Control plots averaged 120 bushels per acre, while AB01 treated plots averaged 143 bushels per acre, a 19% increase. Grain yield is calculated at 15% moisture, a standard measure of harvest output.

Alfalfa seedlings [4] = assay: Salinity tolerance in alfalfa seedlings; type: in vivo; settings: 1 mg/mL; irrigated every 48 hours with 100 mL water containing 35 g/L NaCl; after 5 days
Method: Alfalfa was grown from seeds for 14 days. Seedlings were treated with 1 mg/mL AB01 or mock treated. After treatment, plants were irrigated with 100 mL water containing 35 g/L dissolved salt (NaCl). Irrigation was performed every 48 hours and plants monitored for symptoms of salinity stress.

Striga = assay: Field trial Siaya County, Kenya: reduction of Striga; type: in vivo; settings: 1 gram per acre sprayed 1 week prior to planting
Method: (§1) Field trial was performed from August 2013 to January 2014 in Siaya County, Kenya. AB01 treated plots were sprayed with a 1 gram per acre dose 1 week prior to planting. Treatment was accomplished by resuspending solid AB01 in 1 mL of acetone, and diluting in 4000 L of water. 3 replicate treated and untreated plots (100 m2 each) were performed. […] (C) The biomass of Striga from each plot was collected and measured after harvest.

Seeds of O. cumana = assay: Germination triggering of parasitic weed seeds; type: in vivo; settings: AB01 compared with 5-deoxystrigol; 48 hours post-treatment, triplicate
Method: Seeds of O. cumana were primed by incubation on glass fiber filters in darkness at room temperature for 3 days. Specified concentrations of AB01 or 5-dS were applied and seeds were monitored at 48 hours post-treatment. Germination was evident by appearance of haustoria. Experiments were performed in triplicate.

[5] = system: grain crop in Striga infested plots; assay: Field trial Siaya County, Kenya: grain yield; type: in vivo; settings: 1 gram per acre sprayed 1 week prior to planting
Method: We have field trials underway outside of Kisumu, Kenya to test the efficacy of this treatment on maize yields in Striga infested fields.
as §1

Wheat = assay: Drought tolerance in greenhouse wheat; type: in vivo; settings: 1 mg in 100 mL water; irrigation stopped; 7 days post treatment
Method: Wheat was grown in greenhouse conditions from seed for 6 weeks with adequate irrigation. Plants were treated with 1 mg of AB01 resuspended in acetone and diluted in 100 mL water, or mock treated as a control. Irrigation was stopped and plants monitored for symptoms of drought stress.

MAX1 A. thaliana mutants = assay: Complementation of Arabidopsis mutant deficient in strigolactone biosynthesis; type: in vivo, Arabidopsis thaliana; settings: 1 uM as an irrigation supplement vs mock treatment
Method: To further validate the bioactivity of AB01 we tested whether the compound could complement mutants of the model plant Arabidopsis thaliana that are deficient in strigolactone biosynthesis. […] We grew MAX1 A. thaliana under standard conditions and added 1 uM AB01 as an irrigation supplement, or a mock treatment. […] Thus, the synthetic AB01 is sufficiently similar to strigolactone to both to trigger Striga germination as well as substitute for the natural compound in a model plant.

Striga hermonthica seeds = settings: at 10^-8 M concentrations; cited from earlier work

For `CC1=CC(O/C=C2\C(=O)O[C@]3(C)CCC4C(C)(C)CCC[C@]4(C)[C@@H]23)OC1=O` (stereo partly shown) [AB01], the “fraction of unstressed / severely water stressed seedlings” value [1] was “decreased the fraction of severely stressed seedlings while increasing the fraction of unstressed seedlings in a dose-dependent manner”, the “appearance of seedlings under water limitation” value (Alfalfa seedlings [2]) was “appeared robust” and the “symptoms of salinity shock (wilting)” value (Tomato seedlings) was “appeared unstressed”. For the same molecule, the “bioactivity in Striga germination assay” value (Seeds of Striga asiatica) was “graded dose-response behavior”, the “bioactivity in Striga germination assay” value (Seeds of Striga asiatica; listed as Synthetic SL) was “potent bioactivity” and the “bioactivity in Striga germination assay” value (Seeds of Striga asiatica; listed as synthetic SL) was “displayed bioactivity”. For the same molecule, the “bioactivity in Striga germination assay” value (Seeds of Striga asiatica; listed as synthetically produced SL) was “effective at germinating seeds of Striga asiatica”, the “concentrations able to trigger germination” value (Seeds of Striga asiatica; Striga asiatica seeds conditioned 7 days, dilutions in water) was at least 1 nanogram per liter and the “seeds triggered to germinate” value (Seeds of Striga asiatica; Striga asiatica seeds conditioned in the dark at 30 degrees for 7 days, dilutions in water, 1 nanogram per liter and greater) was “approximately 30%”. For the same molecule, the “increase of harvest yield over control plots” value ([3]; 2 gram per acre spray at VT) was 19%, the ear volume ([3]; 2 gram per acre spray at VT, R3 stage, approximately 100 ears per plot, vs mock treated) was “significantly higher volumes” and the “kernel set at harvest” value ([3]; 2 gram per acre spray at VT, vs mock treated) was “more complete kernel set and few signs of kernel abortion”. The “fraction of fertilized ears (visual inspection of ear silk)” value ([3]; 2 gram per acre spray at tasseling (VT), R2-R3 stage, vs mock treated control) was “decreased the fraction of unfertilized ears while increasing the fraction of fertilized ears”, the “vigor under salinity stress” value (Alfalfa seedlings [4]) was “significantly higher vigor” and the “count of emergent Striga per plot” value (Striga) was “few parasites”. For the same molecule, the “Striga emergence and Striga-related stress during season” value (Striga; 3 replicate plots of 100 m2) was “few signs of Striga-related stress and parasite emergence”, the “germination triggering efficiency (appearance of haustoria)” value (Seeds of O. cumana) was “Significant differences in germination triggering efficiency” and the “increase of grain yield compared to untreated plots” value [5] was 25%. For the same molecule, the “symptoms of drought stress (wilting)” value (Wheat) was “appeared vigorous” and the “effect on phenotype of strigolactone-deficient mutant” value (MAX1 A. thaliana mutants) was “visible impact on the phenotype of the mutant”.

In the case of `CC1=C[C@H](O/C=C2/C(=O)O[C@@H]3C4=C(CCCC4(C)C)C[C@H]23)OC1=O` [Formula 5-dS, 5-deoxystrigol, reference compound], the “germination triggering efficiency (appearance of haustoria)” value (Seeds of O. cumana) is reported as “Significant differences in germination triggering efficiency”.

For `CC1=CC(OC=C2C(=O)OC3C4=C(CC23)C(O)CCC4(C)C)OC1=O` (stereo not drawn) [ent-strigol], the “activity in germination studies of Striga hermonthica seeds” value (Striga hermonthica seeds) is listed as 22%.
